PubChem BioAssay (NCI)
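All cell lines were grown in 96-well plates and treated with compound for 48 hours. The concentration for 50% growth inhibition is given as GI50. TGI: concentration producing complete growth inhibition.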

Tests used:
Test in all cases: NCI-60 cell line screen, 48 h
SW-620 colon = test system: SW-620 colon
SK-OV-3 ovarian = test system: SK-OV-3 ovarian
MOLT-4 leukemia = test system: MOLT-4 leukemia
BT-549 breast = test system: BT-549 breast
SF-295 CNS = test system: SF-295 CNS
SNB-19 CNS = test system: SNB-19 CNS
COLO 205 colon = test system: COLO 205 colon
MALME-3M melanoma = test system: MALME-3M melanoma
HT29 colon = test system: HT29 colon
NCI-H23 lung = test system: NCI-H23 lung

| SMILES | GI50 (SW-620 colon) [µM] | TGI (SW-620 colon) [µM] | GI50 (SK-OV-3 ovarian) [µM] | TGI (SK-OV-3 ovarian) [µM] | GI50 (MOLT-4 leukemia) [µM] | TGI (MOLT-4 leukemia) [µM] | GI50 (BT-549 breast) [µM] | TGI (BT-549 breast) [µM] | GI50 (SF-295 CNS) [µM] | TGI (SF-295 CNS) [µM] | GI50 (SNB-19 CNS) [µM] | TGI (SNB-19 CNS) [µM] | GI50 (COLO 205 colon) [µM] | TGI (COLO 205 colon) [µM] | GI50 (MALME-3M melanoma) [µM] | TGI (MALME-3M melanoma) [µM] | GI50 (HT29 colon) [µM] | TGI (HT29 colon) [µM] | GI50 (NCI-H23 lung) [µM] | TGI (NCI-H23 lung) [µM] |
| --- | --- | --- | --- | --- | --- | --- | --- | --- | --- | --- | --- | --- | --- | --- | --- | --- | --- | --- | --- | --- |
| CN(C)CCNC(=O)NC[C@H]1CC[C@@H]2[C@H](O1)c1cc(C(F)(F)F)ccc1N[C@H]2c1ccccc1 | 0.0765 | 17.1 | 0.0425 | 10 | 0.373 | 19.6 | 0.389 | 14.7 | 0.194 | 5.73 | 0.624 | > 100 | 0.0476 | 0.236 | 0.582 | 22.4 | 0.303 | 11.2 | 0.495 | > 48.3 |
| CN1CCN(Cc2ccc(NC(=O)c3cncc(C#Cc4cnc(N)c5cnccc45)c3)cc2C(F)(F)F)CC1 | 0.182 | 2.62 | 0.181 | 6.21 | 0.172 | 7.49 | 1.08 | 7.23 | 0.799 | 7.07 | 1.76 | 10.9 | 0.0982 | 6 | 0.036 | 0.176 | 0.115 | 6.1 | 0.189 | 3.81 |
| CCCN1CCC(c2ccc(Nc3nc(Nc4cc(F)ccc4C(N)=O)c4cc[nH]c4n3)c(OC)c2)CC1 | 0.099 | 3.04 | 3.03 | 6.93 | 4.4 | 12.3 | 4.16 | 8.19 | 3.86 | 8.37 | 4.15 | 9.73 | 0.0183 | 1.78 | 3.13 | 7.54 | 0.0124 | 1.06 | 2.22 | 6.5 |
| O=[N+]([O-])c1ccc(Sc2ccncn2)c([N+](=O)[O-])c1 | 0.413 | 1.53 | 8.64 | 21.7 | 0.939 | 4.24 | 2.7 | 7.55 | 7.29 | 20.3 | 10.1 | 23.7 | 2.55 | 6.5 | 1.32 | 3.23 | 1.64 | 3.81 | 2.93 | 9.73 |
| CC1=C([Se]CC(OC(=O)[C@@H](CO)NC(=O)OC(C)(C)C)C(=O)NCCCCCC(=O)OCc2ccccc2)C(=O)c2ccccc2C1=O (stereo partly specified) | 1.72 | 3.25 | 1.28 | 2.56 | 1.39 | 4.93 | 1.73 | 3.11 | 0.321 | 1.51 | 0.774 | 2.11 | 1.82 | 3.35 | 2.07 | 3.82 | 2.15 | 3.97 | – | – |
| COc1cccc(Nc2nccc(-c3cnn4ncccc34)n2)c1 | 0.0739 | > 12.3 | 0.151 | > 25 | 0.078 | – | 0.0714 | 6.71 | 0.0496 | > 25 | 0.0833 | > 25 | 0.0433 | 0.0988 | 0.0739 | 0.204 | 0.0513 | 0.198 | 0.0532 | 0.201 |
| C/C(=N/Nc1nc(C)cc(=O)[nH]1)C(=O)O | – | > 100 | – | > 100 | – | > 100 | – | > 100 | – | > 100 | – | > 100 | – | > 100 | – | > 100 | – | > 100 | – | > 100 |
| C[CH2][Sn]([CH2]C)([O]C(=O)c1ccc(OC)c(OC)c1OC)[O]C(=O)c1ccc(OC)c(OC)c1OC | 36.5 | 69.1 | > 100 | > 100 | 34.1 | > 100 | 17.2 | 31.1 | > 100 | > 100 | 53.5 | > 67.5 | 65.1 | > 100 | 21.2 | 50.6 | > 96 | > 100 | 33 | > 67.1 |
| CN(C)CCOC(=O)Nc1nc2ccc(Sc3ccccc3)cc2[nH]1 | 3.69 | 16.3 | 3.87 | 23.7 | 5.32 | 20.1 | 3.2 | 13.5 | 2.96 | 13.4 | 4.87 | 19.5 | 2.16 | 5.19 | 4.93 | 19.5 | 3.57 | 10.7 | 4.08 | 19.5 |
| C[C@@H](Oc1cc(-n2cnc3ccc(OC[C@@H](O)CO)cc32)sc1C(N)=O)c1ccccc1Cl | 0.0633 | > 25 | 0.123 | > 25 | 0.095 | 7.47 | 0.194 | 11.1 | 0.318 | > 25 | 0.339 | > 25 | 0.0743 | > 25 | 7.14 | > 25 | 0.0798 | > 25 | 0.14 | > 25 |
| Nc1c(F)cc(-c2nc3cc(F)ccc3[se]2)cc1Br | > 54.5 | > 100 | 2.31 | 39.3 | > 46.5 | > 100 | 0.334 | > 27.8 | 12.7 | > 100 | 27.8 | > 100 | 0.0536 | > 100 | 25.3 | > 100 | 0.0651 | – | 0.0414 | 20 |
| CCn1ccc(NS(=O)(=O)c2ccc(N)cc2)nc1=O | > 100 | > 100 | > 100 | > 100 | > 100 | > 100 | > 100 | > 100 | > 100 | > 100 | > 100 | > 100 | > 100 | > 100 | > 100 | > 100 | > 100 | > 100 | > 100 | > 100 |
| O=C(/C=C/OC(=O)c1cccc(Cl)c1)c1ccc(Cl)cc1 | 29.4 | > 82 | 35.8 | > 88.4 | 31.8 | > 78.6 | 30.3 | > 77 | 27.3 | > 80.1 | > 56.5 | > 100 | > 65 | > 100 | 2.32 | 39 | 50 | > 100 | 41.7 | > 100 |
